Values of other authors in article PMC10687071 (The Journal of Biological Chemistry, 2023).

Assays:
[1] = tested on: PAS domains of EAG channels; parameters: method as in PMID 31315662, PMID 32047112; details: cited from earlier work
[2] = tested on: PAS domains of ERG3 channels; parameters: method as in PMID 32723862; details: cited from earlier work

Q: For `CN(C)CCCN1c2ccccc2Sc2ccc(Cl)cc21` [chlorpromazine], which “Binding to PAS domains of EAG channels” value [1] is on record?
A: The value was “bind”.

Q: With `C=CC1=C(C)c2cc3[n-]c(cc4[n-]c(cc5nc(cc1n2)C(C)=C5C=C)c(C)c4CCC(=O)O)c(CCC(=O)O)c3C.[Fe+2]` [heme] as the compound, how does the “Binding to PAS domains of ERG3 channels” value [2] read?
A: Its value is “bind”.

Q: With `C=CCCCCCCCCC(=O)O` [undecylenic acid] as the compound, how does the “Binding to PAS domains of EAG channels” value [1] read?
A: Its value is “bind”.
